{"source": "patent US10441537B2", "about": "“Unit doses, aerosols, kits, and methods for treating heart conditions by pulmonary administration” (InCarda Therapeutics, Inc., priority 2017, dated 2019)", "key": {"[1]": {"settings": "IV 2 mg/Kg, n=3, package insert; cited from earlier work"}, "[2]": {"experiment": "Plasma concentrations in LV, femoral vein and pulmonary artery of dogs (Example 7)", "assay_type": "in vivo"}, "[3]": {"system": "induced atrial fibrillation", "experiment": "Conversion of phenylephrine/burst-pacing-induced AF in anesthetized beagle dogs (Example 7)", "assay_type": "in vivo", "settings": "for Time to NSR: IT", "procedure": "The study was carried out in anesthetized healthy adult beagle dogs with induced AF. Acute AF was induced using the combination of phenylephrine ([…]), to increase heterogeneity of atrial refractory periods via increased loading and through a baroreceptor-mediated increase in parasympathetic efferent activity, and right atrial burst pacing (40-50 Hz for ˜15 min). The AF induced using this method was, in general, stable for more than 30 mins.\nThe cardiac rhythm was monitored prior to, during AF, and up to 10 min post-dosing and/or until conversion to NSR."}, "[4]": {"system": "induced atrial fibrillation", "experiment": "Conversion of ACh/burst-pacing-induced AF in intact porcine model (Example 6)", "assay_type": "in vivo, pigs", "procedure": "After 30-min recovery, the alternate intervention was tested. Times for conversion to normal sinus rhythm were compared."}, "healthy volunteers [5]": {"system": "healthy volunteers", "experiment": "Phase 1 study: peripheral oxygen saturation (SpO2%)", "assay_type": "in vivo, human", "settings": "for Oxygen Saturation (SpO2%), Mean: Predose", "procedure": "(§1) Pulmonary safety was assessed by performing lung spirometry tests and measuring peripheral oxygen saturation (SpO2%) prior to dosing and at various times after completion of the inhalation. Lung spirometry tests evaluated all lung function parameters, including forced vital capacity (FVC), forced expiratory volume in 1 second (FEV1), peak expiratory flow (PEF), and forced expiratory flow at 25% and 75% intervals (FEF25-75). Auscultation and respiration rate were also measured prior to dosing and at various times after inhalation. Chest x-rays were performed on subjects before and after flecainide inhalation."}, "[6]": {"system": "induced atrial fibrillation", "experiment": "ACh and burst-pacing-induced AF duration in pigs (Example 5)", "assay_type": "in vivo", "settings": "IT 1.5 mg/kg", "procedure": "At one min after intrapericardial administration of ACh (1 ml of 100 mM), burst pacing was performed to initiate AF in the control cohort (FIG. 60). In the experimental cohort, after ACh and burst-pacing-induced AF, a stable period of 2 min of AF was allowed (FIG. 60). […] Table 12; FIG. 61)."}, "healthy volunteers [7]": {"system": "healthy volunteers", "experiment": "Phase 1 study: auscultation, respiration rate, chest x-rays", "assay_type": "in vivo, human", "procedure": "as §1"}, "[8]": {"system": "induced atrial fibrillation", "experiment": "Induced atrial fibrillation model in anesthetized dogs, intratracheal (IT) administration", "assay_type": "in vivo", "procedure": "Atrial Fibrillation Model: Anesthesia/Surgical Preparation: A venous catheter was placed in a peripheral vessel (i.e., cephalic) for administration of anesthetic. […] Following induction, animals were endotracheally intubated and mechanically ventilated (˜12 breaths/minute with a tidal volume of 200-300 mL). Subsequently, a cut-down on a jugular vein permitted introduction of a pacing lead into the right atrium. Transthoracic electrodes forming ECG lead II were placed. For test/vehicle article delivery, a 4F catheter was introduced through the trachea and wedged into a small airway, and a venous catheter was placed in a peripheral vessel (i.e., cephalic). […] Approximately 5 min after administration of this parasympathomimetic was started; the following experiments were performed: […] Observations were made for up to 10 minutes. […] Vehicle was only water."}, "[9]": {"settings": "before and after inhalation of 20, 30, 40 mg eTLD"}}}
{"smiles": "O=C(NCC1CCCCN1)c1cc(OCC(F)(F)F)ccc1OCC(F)(F)F", "note": "(stereo not shown) [flecainide, flecainide acetate]", "values": [{"measurement": "Tmax", "setting": "[1]", "result": 10.0, "unit": "min after EOI"}, {"measurement": "plasma concentrations transiently higher in the LV than in the PA (summary)", "setting": "[2]; IT", "result": "~2.5", "unit": "fold"}, {"measurement": "plasma levels higher in the LV than in the systemic venous circulation", "setting": "[2]; IT, at the time of conversion", "result": "~2", "unit": "fold"}, {"measurement": "plasma concentrations transiently higher in the PA than in the LV (summary)", "setting": "[2]; IV infusion", "result": "~3.5", "unit": "fold"}, {"measurement": "time after administration at which LV and PA concentrations were nearly equal", "setting": "[2]; IV or IT", "result": "4 to 10", "unit": "min"}, {"measurement": "Time to NSR", "setting": "[3]; Animal 002, dose 0.75 (0.25 + 0.5) mg/kg", "result": 52, "unit": "s"}, {"measurement": "Time to NSR", "setting": "[3]; Animal 003, dose 0.75 mg/kg", "result": 12, "unit": "s"}, {"measurement": "Time to NSR", "setting": "[3]; Animal 004, dose 0.75 mg/kg", "result": 23, "unit": "s"}, {"measurement": "Time to NSR", "setting": "[3]; Animal 005, dose 0.75 mg/kg", "result": 62, "unit": "s"}, {"measurement": "Time to NSR", "setting": "[3]; Animal 006, dose 1.0 (0.75 + 0.25) mg/kg", "result": 83, "unit": "s"}, {"measurement": "effects in BP, VR and LV dP/dtmax upon conversion, IV vs IT", "setting": "[3]; IV compared with IT administration", "result": "greater effects in BP, VR and LV dP/dtmax"}, {"measurement": "time within which plasma concentration reached levels required for conversion", "setting": "[4]; IT 0.75 mg/kg and 1.5 mg/kg (FIG. 66A)", "result": "≤ 10", "unit": "min"}, {"measurement": "dominant frequency of AF", "setting": "[4]; IT 0.75 mg/kg and 1.5 mg/kg (FIG. 67)", "result": "reduced the dominant frequency of AF"}, {"measurement": "AF conversion in representative electrograms", "setting": "[4]; IT 1.5 mg/kg (FIG. 65)", "result": 5, "unit": "min"}, {"measurement": "MAP and ventricular rate after conversion", "setting": "[4]; IT 1.5 mg/kg or 0.75 mg/kg", "result": "restored MAP and ventricular rate to baseline values"}, {"measurement": "SpO2%, Mean", "setting": "healthy volunteers [5]; 20 mg eTLD, 15 min Postdose", "result": 97, "unit": "%"}, {"measurement": "SpO2%, Mean", "setting": "healthy volunteers [5]; 20 mg eTLD, 30 min Postdose", "result": 97, "unit": "%"}, {"measurement": "SpO2%, Mean", "setting": "healthy volunteers [5]; 20 mg eTLD, 45 min Postdose", "result": 97, "unit": "%"}, {"measurement": "SpO2%, Mean", "setting": "healthy volunteers [5]; 20 mg eTLD, 60 min Postdose", "result": 97, "unit": "%"}, {"measurement": "SpO2%, Mean", "setting": "healthy volunteers [5]; 20 mg eTLD, 75 min Postdose", "result": 98, "unit": "%"}, {"measurement": "SpO2%, Mean", "setting": "healthy volunteers [5]; 20 mg eTLD, 90 min Postdose", "result": 98, "unit": "%"}, {"measurement": "SpO2%, Mean", "setting": "healthy volunteers [5]; 20 mg eTLD, 105 min Postdose", "result": 97, "unit": "%"}, {"measurement": "SpO2%, Mean", "setting": "healthy volunteers [5]; 20 mg eTLD, 120 min Postdose", "result": 98, "unit": "%"}, {"measurement": "SpO2%, Mean", "setting": "healthy volunteers [5]; 40 mg eTLD, 15 min Postdose", "result": 96, "unit": "%"}, {"measurement": "SpO2%, Mean", "setting": "healthy volunteers [5]; 40 mg eTLD, 30 min Postdose", "result": 97, "unit": "%"}, {"measurement": "SpO2%, Mean", "setting": "healthy volunteers [5]; 40 mg eTLD, 45 min Postdose", "result": 96, "unit": "%"}, {"measurement": "SpO2%, Mean", "setting": "healthy volunteers [5]; 40 mg eTLD, 60 min Postdose", "result": 96, "unit": "%"}, {"measurement": "SpO2%, Mean", "setting": "healthy volunteers [5]; 40 mg eTLD, 75 min Postdose", "result": 97, "unit": "%"}, {"measurement": "SpO2%, Mean", "setting": "healthy volunteers [5]; 40 mg eTLD, 90 min Postdose", "result": 97, "unit": "%"}, {"measurement": "SpO2%, Mean", "setting": "healthy volunteers [5]; 40 mg eTLD, 105 min Postdose", "result": 97, "unit": "%"}, {"measurement": "SpO2%, Mean", "setting": "healthy volunteers [5]; 40 mg eTLD, 120 min Postdose", "result": 97, "unit": "%"}, {"measurement": "pre-dose and post-dose values for SpO2 (normal range)", "setting": "healthy volunteers [5]; Cohorts 1 and 2", "result": "97-98%"}, {"measurement": "Oxygen Saturation (SpO2%), Mean", "setting": "healthy volunteers [5]; inhaled 20 mg eTLD, Cohort 1 (n=6)", "result": 98, "unit": "%"}, {"measurement": "Oxygen Saturation (SpO2%), Mean", "setting": "healthy volunteers [5]; inhaled 40 mg eTLD, Cohort 2 (n=10)", "result": 97, "unit": "%"}, {"measurement": "recurrence of AF after restoration of sinus rhythm", "setting": "[6]; 30-min window of observation", "result": "no recurrence of AF occurred"}, {"measurement": "AF duration", "setting": "[6]; Pig 236 (No drug 10)", "result": 4, "unit": "min"}, {"measurement": "AF duration", "setting": "[6]; Pig 238 (No drug 12)", "result": 3, "unit": "min"}, {"measurement": "AF duration", "setting": "[6]; Pig 239 (No drug 12)", "result": 3, "unit": "min"}, {"measurement": "respiratory rate", "setting": "healthy volunteers [7]; Cohorts 1, 2, 3 and 5", "result": "minimal or no changes in respiratory rate"}, {"measurement": "Auscultation", "setting": "healthy volunteers [7]; [9]", "result": "normal in all subjects"}, {"measurement": "Chest x-rays", "setting": "healthy volunteers [7]; [9]", "result": "normal and showed no changes"}, {"measurement": "respiration rate", "setting": "healthy volunteers [7]; [9]", "result": "No changes in respiration rate"}, {"measurement": "ECG trace: Afib conversion", "setting": "[8]; 2 mg/kg body weight (FIG. 12)", "result": "Afib converting as soon as dosing occurred"}, {"measurement": "ECG trace: Afib conversion", "setting": "[8]; 4 mg/kg body weight, intra-tracheal instillation (FIG. 11)", "result": "Afib converting into normal sinus rhythm"}, {"measurement": "conversion of Atrial Fibrillation to normal sinus rhythm", "setting": "[8]; IT bolus", "result": "rapidly converted the Atrial Fibrillation to normal sinus rhythm"}, {"measurement": "cardiovascular effect when given by intratracheal instillation (summary)", "setting": "[8]; dog, in vivo", "result": "clear cardiovascular effect"}, {"measurement": "ventricular rate", "setting": "[8]; large pulmonary doses", "result": "slower ventricular rates"}, {"measurement": "drop in mean arterial pressure", "setting": "[8]; pulmonary dose 2-4 mg/kg", "result": "None to minimal drop in mean arterial pressure"}, {"measurement": "conversion of induced atrial fibrillation to normal sinus rhythm", "setting": "[8]; pulmonary dose 2-4 mg/kg body weight", "result": "converted the induced atrial fibrillation to normal sinus rhythm"}]}
